Patent US20220289732A1, “HETEROCYCLIC WDR5 INHIBITORS AS ANTI-CANCER COMPOUNDS” (NOVARTIS AG, priority 2019, published 2022)

Key:
[1] = target: wild type MLL1 four-member complex (MLL1-4C) (Homo sapiens, UniProt P61964); assay: MLL1 LC-MS assay (SAH production); type: biochemical; conditions: read-out: (b) MLL LCMS Peptide Val.v.1 Qualified AC50
In short: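 SAH formation, measured by LC-MS/MS after a TFA quench containing d4-SAH, was normalised to no-compound and no-enzyme controls and fitted to a dose-response curve for IC50. Reactions ran 120 min at rt (pH 8.0 Tris buffer) with final 30 nM MLL1 four-member complex, 2.5 μM SAM and 10 μM biotinylated H3[1-21] peptide, after a 20-min enzyme/SAM-compound preincubation.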

WDR5 = WDR5 (Homo sapiens, UniProt P61964); assay: WDR5 HTRF binding assay; conditions: read-out: (a) WDR5 HTRF Pep Val v.1[Inhibitor/IC50]Qualified AC50
In short: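 In this HTRF displacement format, biotinylated MLL1 WIN peptide (3762-3773, 20 nM) binds WDR5 (6 nM) in 25 mM Hepes pH 7.5 with 100 mM NaCl, 2 mM DTT and 0.1% BSA for 20 min at rt. Detection used streptavidin-APC/anti-His-Eu for 1 hr. IC50 came from dose-response fits of normalized signal; 15 nM biotin-PEG-His peptide served as counter assay.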

MV4-11 cells = assay: MV4-11 6-day cell growth CTG (CellTiter-Glo) assay; type: cell-based; conditions: Homo sapiens, MV4-11, 144 h, 6 days, read-out: (c) MLL/WDR5 cell proliferation assay//MLL/WDR5 proliferation MV4:11 Qualified AC50
In short: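 IC50 comes from a dose-response fit of % inhibition relative to DMSO controls, with viable cells measured by CellTiter-Glo luminescence. Compounds were tested over 12 points (1:3, starting at 50 μM final) on MV4-11 cells plated at 300/well and grown 6 days.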

SMILES	AC50 [1] [nM]	IC50 (WDR5) [nM]	AC50 (MV4-11 cells) [nM]
CNc1nccn1Cc1cc(CN2CC(F)C2)c2c(c1)C(=O)N([C@@H](C)c1cnc(F)c(OC)c1)CC2 [Example 43, (S)-2-(1-(6-fluoro-5-methoxypyridin-3-yl)ethyl)-5-((3-fluoroazetidin-1-yl)methyl)-7-((2-(methylamino)-1H-imidazol-1-yl)methyl)-3,4-dihydroisoquinolin-1(2H)-one]	10 to 1000	10 to 1000	10 to 1000
CNc1nccn1Cc1cc(CN2CC[C@H](F)C2)c2c(c1)C(=O)N([C@@H](C)c1cc(OC)c(F)cn1)CC2 [Example 44, 2-((S)-1-(5-fluoro-4-methoxypyridin-2-yl)ethyl)-5-(((S)-3-fluoropyrrolidin-1-yl)methyl)-7-((2-(methylamino)-1H-imidazol-1-yl)methyl)-3,4-dihydroisoquinolin-1(2H)-one]	10 to 1000	10 to 1000	10 to 1000
CNc1nccn1Cc1cc(CN(C)C)c2c(c1)C(=O)N([C@@H](C)c1cc(OC)c(C#N)cn1)CC2 [Example 45, (S)-6-(1-(5-((dimethylamino)methyl)-7-((2-(methylamino)-1H-imidazol-1-yl)methyl)-1-oxo-3,4-dihydroisoquinolin-2(1H)-yl)ethyl)-4-methoxynicotinonitrile]	10 to 1000	10 to 1000	10 to 1000
CCOc1cc(CN2CCc3c(CN4CC(F)(F)C4)cc(Cn4ccnc4NC)cc3C2=O)cnc1C#N [Example 46, 5-((5((3,3-difluoroazetidin-1-yl)methyl)-7-((2-(methylamino)-1H-imidazol-1-yl)methyl)-1-oxo-3,4-dihydroisoquinolin-2(1H)-yl)methyl)-3-ethoxypicolinonitrile]	10 to 1000	10 to 1000	10 to 1000
CNc1nccn1Cc1cc(CN(C)CC(F)(F)F)c2c(c1)C(=O)N([C@@H](C)c1cc(OC)c(F)cn1)CC2 [Example 47, (S)-2-(1-(5-fluoro-4-methoxypyridin-2-yl)ethyl)-5-((methyl(2,2,2-trifluoroethyl)amino)methyl)-7-((2-(methylamino)-1H-imidazol-1-yl)methyl)-3,4-dihydroisoquinolin-1(2H)-one]	10 to 1000	10 to 1000	10 to 1000
CNc1nccn1Cc1cc(CN2CC(F)(F)C2)c2c(c1)C(=O)N([C@@H](C)c1cc(OC)c(F)cn1)CC2 [Example 48, (S)-5-((3,3-difluoroazetidin-1-yl)methyl)-2-(1-(5-fluoro-4-methoxypyridin-2-yl)ethyl)-7-((2-(methylamino)-1H-imidazol-1-yl)methyl)-3,4-dihydroisoquinolin-1(2H)-one]	10 to 1000	10 to 1000	10 to 1000
CNc1nccn1Cc1cc(CN(C)CCF)c2c(c1)C(=O)N([C@@H](C)c1cc(OC)c(F)cn1)CC2 [Example 49, (S)-2-(1-(5-fluoro-4-methoxypyridin-2-yl)ethyl)-5-(((2-fluoroethyl)(methyl)amino)methyl)-7-((2-(methylamino)-1H-imidazol-1-yl)methyl)-3,4-dihydroisoquinolin-1(2H)-one]	10 to 1000	10 to 1000	10 to 1000
CCOc1cc([C@H](C)N2CCc3c(CN(C)C)cc(Cn4ccnc4NC)cc3C2=O)ncc1C#N [Example 50, (S)-6-(1-(5-((dimethylamino)methyl)-7-((2-(methylamino)-1H-imidazol-1-yl)methyl)-1-oxo-3,4-dihydroisoquinolin-2(1H)-yl)ethyl)-4-ethoxynicotinonitrile]	10 to 1000	10 to 1000	10 to 1000
CNc1nccn1Cc1cc2c(c(-c3cc(CO)cnc3Cl)c1)CCN(Cc1cccc(OC)c1)C2=O [Example 52, 5-(2-chloro-5-(hydroxymethyl)pyridin-3-yl)-2-(3-methoxybenzyl)-7-((2-(methylamino)-1H-imidazol-1-yl)methyl)-3,4-dihydroisoquinolin-1(2H)-one]	10 to 1000	< 10	10 to 1000
CNc1nccn1Cc1cc2c(c(-c3cc(CO)cnc3Cl)c1)CCN(Cc1ccc(F)c(OC)c1)C2=O [Example 53, 5-(2-chloro-5-(hydroxymethyl)pyridin-3-yl)-2-(4-fluoro-3-methoxybenzyl)-7-((2-(methylamino)-1H-imidazol-1-yl)methyl)-3,4-dihydroisoquinolin-1(2H)-one]	10 to 1000	10 to 1000	10 to 1000
CNc1nccn1Cc1cc2c(c(-c3cn(C)nc3C(F)(F)F)c1)CCN(Cc1ccc(F)c(OC)c1)C2=O [Example 54, 2-(4-fluoro-3-methoxybenzyl)-5-(1-methyl-3-(trifluoromethyl)-1H-pyrazol-4-yl)-7-((2-(methylamino)-1H-imidazol-1-yl)methyl)-3,4-dihydroisoquinolin-1(2H)-one]	10 to 1000	10 to 1000	10 to 1000
CNc1nccn1Cc1cc2c(c(-c3c[nH]nc3C)c1)CCN(Cc1ccc(F)c(OC)c1)C2=O [Example 55, 2-(4-fluoro-3-methoxybenzyl)-5-(3-methyl-1H-pyrazol-4-yl)-7-((2-(methylamino)-1H-imidazol-1-yl)methyl)-3,4-dihydroisoquinolin-1(2H)-one]	10 to 1000	10 to 1000	10 to 1000
CNc1nccn1Cc1cc2c(c(-c3cc(CO)cnc3Cl)c1)CCN([C@@H](C)c1ccc(F)c(OC)c1)C2=O [Example 56, (S)-5-(2-chloro-5-(hydroxymethyl)pyridin-3-yl)-2-(1-(4-fluoro-3-methoxyphenyl)ethyl)-7-((2-(methylamino)-1H-imidazol-1-yl)methyl)-3,4-dihydroisoquinolin-1(2H)-one]	10 to 1000	10 to 1000	10 to 1000
CNc1nccn1Cc1cc2c(c(-c3cc(CO)cnc3Cl)c1)CCN([C@H](C)c1ccc(F)c(OC)c1)C2=O [Example 57, (R)-5-(2-chloro-5-(hydroxymethyl)pyridin-3-yl)-2-(1-(4-fluoro-3-methoxyphenyl)ethyl)-7-((2-(methylamino)-1H-imidazol-1-yl)methyl)-3,4-dihydroisoquinolin-1(2H)-one]	10 to 1000	10 to 1000	10 to 1000
CNc1nccn1Cc1cc2c(c(-c3cn(C)nc3C)c1)CCN(Cc1ccc(F)c(OC)c1)C2=O [Example 58, 5-(1,3-dimethyl-1H-pyrazol-4-yl)-2-(4-fluoro-3-methoxybenzyl)-7-((2-(methylamino)-1H-imidazol-1-yl)methyl)-3,4-dihydroisoquinolin-1(2H)-one]	10 to 1000	10 to 1000	10 to 1000
CNc1nccn1Cc1cc2c(c(-c3cncnc3)c1)CCN([C@@H](C)c1cc(OC)c(F)cn1)C2=O [Example 59, (S)-2-(1-(5-fluoro-4-methoxypyridin-2-yl)ethyl)-7-((2-(methylamino)-1H-imidazol-1-yl)methyl)-5-(pyrimidin-5-yl)-3,4-dihydroisoquinolin-1(2H)-one]	10 to 1000	10 to 1000	10 to 1000
CNc1nccn1Cc1cc2c(c(-c3ccnn3C)c1)CCN(Cc1cc(OC)c(F)cn1)C2=O [Example 60, 2-((5-fluoro-4-methoxypyridin-2-yl)methyl)-5-(1-methyl-1H-pyrazol-5-yl)-7-((2-(methylamino)-1H-imidazol-1-yl)methyl)-3,4-dihydroisoquinolin-1(2H)-one]	10 to 1000	10 to 1000	10 to 1000
CNc1nccn1Cc1cc2c(c(-c3cc(CO)cnc3Cl)c1)CCN(Cc1cc(OC)c(F)cc1F)C2=O [Example 61, 5-(2-chloro-5-(hydroxymethyl)pyridin-3-yl)-2-(2,4-difluoro-5-methoxybenzyl)-7-((2-(methylamino)-1H-imidazol-1-yl)methyl)-3,4-dihydroisoquinolin-1(2H)-one]	10 to 1000	10 to 1000	10 to 1000
CNc1nccn1Cc1cc2c(c(-c3cn(C)nc3C)c1)CCN([C@@H](C)c1cc(OC)c(F)cn1)C2=O [Example 62, (S)-5-(1,3-dimethyl-1H-pyrazol-4-yl)-2-(1-(5-fluoro-4-methoxypyridin-2-yl)ethyl)-7-((2-(methylamino)-1H-imidazol-1-yl)methyl)-3,4-dihydroisoquinolin-1(2H)-one]	10 to 1000	10 to 1000	10 to 1000
CNc1nccn1Cc1cc2c(c(-c3ccn[nH]3)c1)CCN([C@@H](C)c1cc(OC)c(F)cn1)C2=O [Example 63, (S)-2-(1-(5-fluoro-4-methoxypyridin-2-yl)ethyl)-7-((2-(methylamino)-1H-imidazol-1-yl)methyl)-5-(1H-pyrazol-5-yl)-3,4-dihydroisoquinolin-1(2H)-one]	10 to 1000	10 to 1000	10 to 1000
CNc1nccn1Cc1cc2c(c(-c3cn(C)nc3C(F)(F)F)c1)CCN(Cc1cc(OC)c(F)cn1)C2=O [Example 64, 2-((5-fluoro-4-methoxypyridin-2-yl)methyl)-5-(1-methyl-3-(trifluoromethyl)-1H-pyrazol-4-yl)-7-((2-(methylamino)-1H-imidazol-1-yl)methyl)-3,4-dihydroisoquinolin-1(2H)-one]	10 to 1000	10 to 1000	10 to 1000
